“And” between values parts separate entries of the source, which are not always exact repeats. Equal values may be shown once. “Also recorded” adds a separate entry of the source.
Tests used:
PBPLma = target: PBPLma; set-up: method as in PMID 12529170; conditions: read-out: binding affinities; cited from earlier work
OfurPBP3 mutant M4: I94R = OfurPBP3 mutant M4: I94R (Ostrinia furnacalis, UniProt E7CCA1, L116R); experiment: Competitive binding assay, OfurPBP3 mutant M4 I94R
Protocol: (§1) The 1-NPN probe was excited at 337 nm, and emission spectra were recorded between 380 and 450 nm on a Shimadzu fluorescence spectrophotometer (Shimadzu, Japan). Each trial was run in triplicate, and Scatchard plots of the ratio of bound to unbound ligand were created using Microsoft Excel 2010. Competitive binding assays were performed with each of the OfurPBPs using 1-NPN as the probe. Assay reactions were comprised of 2 µM of each OfurPBP diluted individually in 2.0 ml 20 mM Tris–HCl, pH 7.4, which were then titrated with 1.0 mM increments sex pheromone diluted in methanol to a final concentrations of 1–6 µM. The synthetic standards that correspond to the sex pheromones of O. furnacalis, O. nubilalis and other lepidopteran species were purchased from Sigma-Aldrich (Shanghai, China; Additional file 2: S2). Excitation and emission spectra were recorded from triplicate assays as described above. The binding affinity of each purified OfurPBP to the different sex pheromones was measured by calculation of binding constants via competitive fluorescence-binding assay. In brief, relative fluorescent intensities were analyzed by GraphPad Prism 5 software (GraphPad Software Inc, La Jolla, CA) and calculation was done using the equation: Ki = [IC50]/(1 + [1-NPN]/K1-NPN), where [1-NPN] is the free concentration of 1-NPN and K1-NPN is the dissociation constant of the complex protein/1-NPN [19, 20]. Sex pheromone binding affinity with different PBPs was analyzed using One-way ANOVA in SAS 8.0 (SAS Institute Inc., Cary, NC, USA).
(§2) Four amino acids of OfurPBP3 with some of the most negative estimated E total values were mutated using Quick-change lightning site-directed mutagenesis kit (Stratagene, La Jolla, CA, USA); Ile to Asn at position 113 ([…]), m2 Phe to Ser at position 12 (F12S), m3 Ile to Asn at position 52 (I52N), and m4 […] to Arg at position 94 (I94R). The sequence of each primers used to alter the aforementioned sites by nucleotide mismatch are shown in Additional file 3: S3. After initial denaturation at 94 °C for 5 min, the subsequent PCR followed with 30 cycles of 94 °C for 30 s, 56 °C for 30 s, and final extension at 72 °C for 1 min. Changes within site-directed mutant fragments were verified by cloning into the pGEM-T Easy vector (Promega) by Sanger sequencing. All mutated OfurPBPs proteins were expressed and used within in vitro binding assays as described above.

OfurPBP3 mutant M2: F12S = OfurPBP3 mutant M2: F12S (Ostrinia furnacalis, UniProt E7CCA1, F34S); experiment: Competitive binding assay, OfurPBP3 mutant M2 F12S
Protocol: as §1, §2

OfurPBP3 mutant M3: I52N = OfurPBP3 mutant M3: I52N (Ostrinia furnacalis, UniProt E7CCA1, I74N); experiment: Competitive binding assay, OfurPBP3 mutant M3 I52N
Protocol: as §1, §2

recombinant OfurPBP1 = recombinant OfurPBP1 (Ostrinia furnacalis, UniProt E7CC99); experiment: Competitive fluorescence binding assay with 1-NPN probe, OfurPBP1; conditions: mean ± SE, dash = undetectable interaction; for Ki: pH 7.4, Ki = [IC50]/(1 + [1-NPN]/K1-NPN); for IC50: pH 7.4, displacement of 1-NPN
Protocol: as §1

recombinant OfurPBP3 = recombinant OfurPBP3 (Ostrinia furnacalis, UniProt E7CCA1); experiment: Competitive fluorescence binding assay with 1-NPN probe, OfurPBP3 wild type; conditions: pH 7.4; for IC50 / Ki: OfurPBP3 wild type, mean ± SE, dash = undetectable interaction; for IC50: displacement of 1-NPN
Protocol: as §1

[1] = target: OfurPBP3 mutant M1: I113N (Ostrinia furnacalis, UniProt E7CCA1, I135N); experiment: Competitive binding assay, OfurPBP3 mutant M1 I113N; conditions: for fold reduction in affinity compared to wild-type OfurPBP3: mutant I113N vs wildtype
Protocol: as §1, §2

recombinant OfurPBP4 = recombinant OfurPBP4 (Ostrinia furnacalis, UniProt E7CCA2); experiment: Competitive fluorescence binding assay with 1-NPN probe, OfurPBP4; conditions: pH 7.4; for IC50 / Ki: OfurPBP4, mean ± SE, dash = undetectable interaction; for IC50: displacement of 1-NPN
Protocol: as §1

[2] = system: OfurPBP1, OfurPBP2, OfurPBP3, OfurPBP4 and OfurPBP5; experiment: Competitive binding assay, statements on all five OfurPBPs together; set-up: species or system Ostrinia furnacalis; conditions: pH 7.4
Protocol: as §1

recombinant OfurPBP5 = recombinant OfurPBP5 (Ostrinia furnacalis, UniProt E7CCA3); experiment: Competitive fluorescence binding assay with 1-NPN probe, OfurPBP5; conditions: pH 7.4; for IC50 / Ki: OfurPBP5, mean ± SE, dash = undetectable interaction; for IC50: displacement of 1-NPN
Protocol: as §1

recombinant OfurPBP2 = recombinant OfurPBP2 (Ostrinia furnacalis, UniProt E7CCA0); experiment: Competitive fluorescence binding assay with 1-NPN probe, OfurPBP2; conditions: dash = undetectable interaction; for IC50: pH 7.4, displacement of 1-NPN, mean ± SE; for Ki: pH 7.4, mean ± SE
Protocol: as §1

[3] = system: OfurPBP3 mutants F12S, I52N, I94R, and I113N; experiment: Competitive binding assay, statements on all OfurPBP3 mutants together; set-up: species or system Ostrinia furnacalis; conditions: for binding to all mutated OfurPBPs (in words): pH 7.4; for fold reduction in OfurPBP3 affinity caused by Ser12, Asn52, Arg94, Asn113 variants: range over the four mutants vs wild type
Protocol: as §1, §2

recombinant OfurPBP1, sequence (E7CC99 entry or part of it): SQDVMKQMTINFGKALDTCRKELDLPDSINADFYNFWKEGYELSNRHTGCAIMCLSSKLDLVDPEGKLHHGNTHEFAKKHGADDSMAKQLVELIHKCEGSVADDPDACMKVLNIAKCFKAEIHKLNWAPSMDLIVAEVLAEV
OfurPBP3 mutant M2: F12S, sequence (E7CCA1 entry or part of it F34S): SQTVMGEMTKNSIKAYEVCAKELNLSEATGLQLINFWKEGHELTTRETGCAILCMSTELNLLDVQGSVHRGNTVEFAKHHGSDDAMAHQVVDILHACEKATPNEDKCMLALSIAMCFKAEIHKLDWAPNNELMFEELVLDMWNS
OfurPBP3 mutant M3: I52N, sequence (E7CCA1 entry or part of it I74N): as the sequence (E7CCA1 entry or part of it F34S) above, with S12F, I52N counted along it
recombinant OfurPBP3, sequence (E7CCA1 entry or part of it): as the sequence (E7CCA1 entry or part of it F34S) above, with S12F counted along it
recombinant OfurPBP4, sequence (E7CCA2 entry or part of it): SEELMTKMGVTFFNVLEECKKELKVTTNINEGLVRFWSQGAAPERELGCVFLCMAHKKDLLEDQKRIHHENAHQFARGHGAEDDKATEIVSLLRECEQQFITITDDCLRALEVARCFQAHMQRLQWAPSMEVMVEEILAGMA
recombinant OfurPBP2, sequence (E7CCA0 entry or part of it): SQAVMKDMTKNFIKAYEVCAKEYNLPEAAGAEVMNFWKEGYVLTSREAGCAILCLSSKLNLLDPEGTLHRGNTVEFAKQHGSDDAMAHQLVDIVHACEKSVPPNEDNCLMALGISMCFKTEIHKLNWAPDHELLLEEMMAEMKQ
recombinant OfurPBP5, sequence (E7CCA3 entry or part of it): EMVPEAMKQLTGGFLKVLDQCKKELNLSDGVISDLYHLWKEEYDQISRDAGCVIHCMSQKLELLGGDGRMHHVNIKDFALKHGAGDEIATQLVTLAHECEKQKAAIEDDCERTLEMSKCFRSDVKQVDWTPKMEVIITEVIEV
OfurPBP3 mutant M4: I94R, sequence (E7CCA1 entry or part of it L116R): as the sequence (E7CCA1 entry or part of it F34S) above, with S12F, L94R counted along it
OfurPBP3 mutant M1: I113N, sequence (E7CCA1 entry or part of it I135N): as the sequence (E7CCA1 entry or part of it F34S) above, with S12F, I113N counted along it

SMILES	IC50 (OfurPBP3 mutant M4: I94R)	IC50 (OfurPBP3 mutant M2: F12S)	IC50 (OfurPBP3 mutant M3: I52N)	Ki (recombinant OfurPBP1)	IC50 (recombinant OfurPBP1)	IC50 (recombinant OfurPBP3)	Ki (recombinant OfurPBP3)	IC50 [1]	IC50 (recombinant OfurPBP4)	Ki (recombinant OfurPBP4)	binding to all five OfurPBPs (in words) [2]	IC50 (recombinant OfurPBP5)	Ki (recombinant OfurPBP5)	IC50 (recombinant OfurPBP2)	Ki (recombinant OfurPBP2)	further results
CC(=O)C(C)O (centres unmarked) [3-hydroxy-butan-2-on]																Kd (PBPLma): 3.8 µM
CC/C=C/CCCCCCCCCCOC(C)=O [E11-14:OAc, (E)-11-Tetradecenyl acetate]	> 6 µM	> 6 µM	> 6 µM	4.61 ± 0.02 µM	5.3 ± 0.02 µM	2.64 ± 0.15 µM	1970 ± 110 nM	> 6 µM	2.31 ± 0.57 µM	2130 ± 530 nM	relatively high affinities	1.9 ± 0.07 µM	1140 ± 40 nM	3.28 ± 0.01 µM	2.77 ± 0.01 µM	
CC/C=C/CCCCCCCCCCO [E11-14:OH, (E)-11-Tetradecenol]	> 6 µM	> 6 µM	> 6 µM	> 6 µM	> 6 µM	> 6 µM	> 6000 nM	> 6 µM	> 6 µM	> 6000 nM	weak or lack of detectable binding	> 6 µM	> 6000 nM	> 6 µM		binding to all mutated OfurPBPs (in words) [3]: weak binding affinity; binding to wildtype OfurPBP3 (in words) (recombinant OfurPBP3): failed to demonstrate this function
C/C=C/CCCCCCCCCCCOC(C)=O [E12-14:OAc, (E)-12-Tetradecenyl acetate]	> 6 µM	> 6 µM	> 6 µM	5.01 ± 0.14 µM	5.77 ± 0.16 µM	3.81 ± 0.02 µM	2850 nM and 2840 nM	> 6 µM	> 6 µM	> 6000 nM		> 6 µM		4.88 ± 0.1 µM	4.12 ± 0.08 µM	fold reduction in OfurPBP3 affinity caused by Ser12, Asn52, Arg94, Asn113 variants [3]: 1.7- to 4.6 fold; binding to OfurPBP4 (in words) (recombinant OfurPBP4): incapable of binding; also recorded: no detectable binding
CCCC/C=C\CCCCCCCCO [Z9-14:OH, (Z)-9-Tetradecenol]	> 6 µM	> 6 µM	> 6 µM	> 6 µM	> 6 µM	> 6 µM	> 6000 nM	> 6 µM	> 6 µM	> 6000 nM	weak or lack of detectable binding	> 6 µM	> 6000 nM	> 6 µM	> 6 µM	binding to all mutated OfurPBPs (in words) [3]: weak binding affinity; binding to wildtype OfurPBP3 (in words) (recombinant OfurPBP3): failed to demonstrate this function; binding to I113N (in words) ([1]; pH 7.4): ability to bind
CC/C=C\CCCCCCCCCCOC(C)=O [Z11-14:OAc, (Z)-11-Tetradecenyl acetate]	> 6 µM	> 6 µM	> 6 µM	4.08 ± 0.12 µM	4.69 ± 0.14 µM	3.27 ± 0.24 µM	2440 ± 180 nM	> 6 µM	1.18 ± 0.05 µM	1090 ± 50 nM	relatively high affinities	3.64 ± 0.28 µM	2180 ± 170 nM	3.49 ± 0.06 µM	2.95 ± 0.05 µM	fold reduction in affinity compared to wild-type OfurPBP3 [1]: ~8.25 fold
C/C=C\CCCCCCCCCCCOC(C)=O [Z12-14:OAc, (Z)-12-Tetradecenyl acetate]	> 6 µM	> 6 µM	> 6 µM	4.24 ± 0.82 µM	4.88 ± 0.94 µM	3.83 ± 0.06 µM	2860 ± 40 nM	> 6 µM	> 6 µM			> 6 µM		4.96 ± 0.23 µM	4.19 ± 0.09 µM	fold reduction in affinity compared to wild-type OfurPBP3 (OfurPBP3 mutant M2: F12S; mutant F12S vs wildtype): ~ 2 fold; fold reduction in OfurPBP3 affinity caused by Ser12, Asn52, Arg94, Asn113 variants [3]: 1.7- to 4.6 fold; fold reduction in affinity compared to wild-type OfurPBP3 [1]: ~ 2 fold; binding to OfurPBP5 (in words) (recombinant OfurPBP5): weakly
CC(O)C(C)O (centres unmarked) [butane-2,3-diol]																Kd (PBPLma): 2.5 µM
